# ChEMBL document CHEMBL1158652, “Constituents of Helenium amarum. II. Isolation and Characterization of Heleniamarin and Other Constituents” (1979)
# System: KB
# Test: Cytotoxicity against human KB cells
# Assay type: functional
# Conditions: read-out: ED50 (the source's name)
row,Compound,EC50 [µg/mL]
1,COc1c(O)cc2oc(-c3ccc(O)cc3)cc(=O)c2c1O [HISPIDULIN],96
2,C=C1C(=O)O[C@H]2C[C@@H](C)[C@@H]3C=CC(=O)[C@@]3(C)[C@H](O)[C@H]12 [MEXICANIN I],1.9
3,C=C1C(=O)O[C@H]2C[C@@H](C)[C@@H]3C=CC(=O)[C@@]3(C)C[C@H]12 [AROMATICIN],2
4,C[C@@H]1C[C@@H]2OC(=O)[C@]3(C)[C@H]2[C@@H](OC3(C)O)[C@]2(C)C(=O)C=C[C@@H]12 (some centres undefined) [TENULIN],26
